Kd data for 3 substances are collected here from BindingDB's records for doi:10.1074/jbc.M113.534859 (Karlsruhe Institute of Technology, 2014).

The assay has as its target T1, Androgen receptor [646-919] (Human, UniProt P10275).
T1 construct: 646-919
T1 sequence (P10275 whole entry): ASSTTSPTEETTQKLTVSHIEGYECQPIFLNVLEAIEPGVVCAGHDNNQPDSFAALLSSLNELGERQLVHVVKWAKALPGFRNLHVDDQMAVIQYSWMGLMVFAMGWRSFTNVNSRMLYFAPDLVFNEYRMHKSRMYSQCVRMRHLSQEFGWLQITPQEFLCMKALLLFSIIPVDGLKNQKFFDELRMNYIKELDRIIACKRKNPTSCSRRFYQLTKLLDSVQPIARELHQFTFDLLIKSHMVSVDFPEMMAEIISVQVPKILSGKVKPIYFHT
Briefly: Fluorescence Polarization Assay. Particulars: pH 6.5. How it is done: For the fluorescence polarization experiments, 5 nM fluorescently labeled Bag-1L (Bag-1L(1-20), fluorescein isothiocyanate (FITC)-[…]; Bag-1L(61-80), FITC-[…]) or SRC-2 peptide (FITC-[…]) was incubated with serially diluted AR-LBD (4 to 0.4 μM) in binding buffer (50 mM NaPO4, pH 6.5, 50 mM KCl, 1 mM DTT) and 10 μM DHT. The samples were then equilibrated for 45 min at ambient temperature. For the competition experiments, 400 to 0.4 nM Bag-1L core (GARRPR) or SRC-2 peptides ([…]) were incubated with 4 μM AR-LBD and 5 nM fluorescent Bag-1 or SRC-2 peptide. Binding was measured using polarization (excitation λ = 485 nm, emission λ = 530 nm) on a Synergy H1 hybrid reader (Biotek).

Usually Kd stands for the free concentration of one partner at which half of the binding sites on the other are occupied at equilibrium, for simple one-to-one binding. For H-HDSKGQTKLLQLLTTKSDQM-OH, the Kd came to 2800 nM. The same measure for “H-MAQRGGARRPRGDRERLGSR-OH [Bag-1L (1-20)]”: 2000 nM; for “H-RGAAAGARRPRMKKKTRRRS-OH [Bag-1L (61-80)]”: 3300 nM.
